Values after ≈ are worked out from the molar mass of the structure shown. Read-outs that look alike come from different tables or passages of the source. Positions of bridges follow the written chain, without caps; N, C: chain ends. Non-standard residues stand in square brackets, D forms with d. Residues, ends and D or L forms follow the SMILES beside them. *: point of attachment. Benzoyl(4-Ph) = O=C(c1ccc(-c2ccccc2)cc1)*; Decanoyl = CCCCCCCCCC(=O)*; Octanoyl = CCCCCCCC(=O)*; Dab = NCC[C@H](N)C(=O)O; Hexanoyl = CCCCCC(=O)*; PhAc = O=C(Cc1ccccc1)*
Key:
Klebsiella pneumoniae = test system: Klebsiella pneumoniae
How it was run: (§1)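 Broth microdilution, CAMHB, per CLSI M100-S18; compounds as TFA salts; polymyxin B (sulphate) control; read-out MIC.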

Acinetobacter baumannii = test system: Acinetobacter baumannii
How it was run: as §1

Enterobacter cloacae = test system: Enterobacter cloacae
How it was run: as §1

Pseudomonas aeruginosa = test system: Pseudomonas aeruginosa
How it was run: as §1

P. aeruginosa ATCC 27853 = test: In vivo efficacy in mouse blood infection model (neutropenic Swiss mice); details: compound, free base 4 mg/kg intravenously 2 h after inoculation, blood at 4 h
Method: P. aeruginosa ATCC 27853, A. baumannii ATCC 19606 and K. pneumoniae FADDI-KP032 were subcultured on nutrient agar plates. One colony of each bacterial strain was dispersed in 10-mL CAMHB and incubated overnight. On day 2, an aliquot (0.2 mL) of each overnight culture suspension was dispersed in 20-mL CAMHB and incubated for 1.5-2.5 h for production of early log-phase growth bacterial culture. The bacteria in the early log-phase growth suspension were concentrated by centrifugation (3,220 g for 10 min) and re-suspended in sterile 0.9% saline for inoculation into mice. The bacterial cell concentration (colony forming unit [CFU]/mL) in saline was estimated by determining the optical density (OD) of the suspension at 600 nm, and confirmed by plating the suspension on nutrient agar plates. Swiss mice (22 to 28 g) were rendered neutropenic by injecting two doses of cyclophosphamide intraperitoneally, −4 day (150 mg/kg) and −1 day (100 mg/kg) prior to inoculation. Bloodstream infection was established by injecting intravenously 50 μL of early log-phase bacterial suspension (10^8-10^9 CFU/mL). The exact injection volume for each bacterial suspension was calculated based upon the OD value of the bacterial suspension and the desired inoculum for each isolate.
Solutions for administration of colistin, polymyxin B or the compounds were prepared at a concentration of 1 mg (free base) per mL in sterile 0.9% saline. At 2 h after inoculation, a mouse in the treatment groups was injected intravenously with one of the above solutions at 4 μL/g body weight (BW) (i.e. free base 4 mg/kg BW), while the same volume of saline was injected into the control mice. At 0 h or at 4 h after the administration of antibacterial drug or saline (control), animals were euthanised by inhalation of overdose isoflurane. The skin on the chest and fore-paws of each animal was thoroughly cleansed with 70% ethanol and Betadine®. The blood was collected via cardiac puncture using a 1-mL syringe rinsed with heparin (5,000 IU/mL), diluted serially in sterile 0.9% saline and plated on nutrient agar plates using a spiral plater.
The agar plates were incubated at 37° C. overnight. The bacterial colonies on the plate were counted and CFU/mL of the blood was calculated. The log10 CFU/mL of blood in each mouse was calculated. The in vivo activity of the compounds against the bacteria was calculated as the difference of the log10 CFU/mL values between the treated mice and the control mice at 4 h (Δ log=log10 (treated)CFU/mL−log10 (control)CFU/mL).
Any compound showing a decrease in bacterial loading (Δ log) of ≥2 at 4 h is considered to have good in vivo efficacy in this initial screening model.

[1] = Acinetobacter baumannii ATCC 17978, broth microdilution in CAMHB
[2] = Acinetobacter baumannii ATCC 19606, broth microdilution in CAMHB
[3] = Acinetobacter baumannii FADDI-AB034, broth microdilution in CAMHB
[4] = Enterobacter cloacae FADDI-EC001, broth microdilution in CAMHB
[5] = Enterobacter cloacae FADDI-EC003, broth microdilution in CAMHB
[6] = Enterobacter cloacae FADDI-EC006, broth microdilution in CAMHB
[7] = Pseudomonas aeruginosa ATCC 27853, broth microdilution in CAMHB
[8] = Pseudomonas aeruginosa FADDI-PA022, broth microdilution in CAMHB
[9] = Pseudomonas aeruginosa FADDI-PA025, broth microdilution in CAMHB

Row | Compound | MIC (Klebsiella pneumoniae) | MIC (Acinetobacter baumannii) | Minimum inhibitory concentration, Ab A ATCC 17978 (Acinetobacter baumannii) | Minimum inhibitory concentration, Ab ATCC 19606 (Acinetobacter baumannii) | Minimum inhibitory concentration, Ab FADDI-AB034 (Acinetobacter baumannii) | Minimum inhibitory concentration, Ec FADDI-EC001 (Enterobacter cloacae) | Minimum inhibitory concentration, Ec FADDI-EC003 (Enterobacter cloacae) | Minimum inhibitory concentration, Ec FADDI-EC006 (Enterobacter cloacae) | MIC (Pseudomonas aeruginosa) | Minimum inhibitory concentration, Pa ATCC 27853 (Pseudomonas aeruginosa) | Minimum inhibitory concentration, Pa FADDI-PA022 (Pseudomonas aeruginosa) | Minimum inhibitory concentration, Pa FADDI-PA025 (Pseudomonas aeruginosa) | Δ log (Treated-Control at 4 h) (P. aeruginosa ATCC 27853) | other results
1 | CCCCCCCC(=O)N[C@@H](CCN)C(=O)N[C@H](C(=O)N[C@H](CO)C(=O)N[C@H]1CCNC(=O)[C@H]([C@@H](C)O)NC(=O)[C@H](CCN)NC(=O)[C@H](CCN)NC(=O)[C@H](C(C)C)NC(=O)[C@@H](CC(C)C)NC(=O)[C@H](CCN)NC1=O)[C@@H](C)O [Compound 5] (Octanoyl-[Dab]T[dS][Dab][Dab][dL]V[Dab][Dab]T; lactam 4-C) | <0.125 µg/mL | <0.125 µg/mL | <0.125 µg/mL | <0.125 µg/mL | 0.25 µg/mL (≈ 0.222 µM) | 0.25 µg/mL (≈ 0.222 µM) | <0.125 µg/mL | 0.25 µg/mL (≈ 0.222 µM) | 2 µg/mL (≈ 1.77 µM) | 2 µg/mL (≈ 1.77 µM) | 4 µg/mL (≈ 3.54 µM) | 16 µg/mL (≈ 14.2 µM) | – | –
2 | CCCCCCCC(=O)N[C@@H](CCN)C(=O)N[C@H](C(=O)N[C@H](CO)C(=O)N[C@H]1CCNC(=O)[C@H]([C@@H](C)O)NC(=O)[C@H](CCN)NC(=O)[C@H](CCN)NC(=O)[C@H](CO)NC(=O)[C@@H](CC(C)C)NC(=O)[C@H](CCN)NC1=O)[C@@H](C)O [Compound 6] (Octanoyl-[Dab]T[dS][Dab][Dab][dL]S[Dab][Dab]T; lactam 4-C) | 0.5 µg/mL (≈ 0.448 µM) | 1 µg/mL (≈ 0.896 µM) | 1 µg/mL (≈ 0.896 µM) | 1 µg/mL (≈ 0.896 µM) | 0.5 µg/mL (≈ 0.448 µM) | 0.25 µg/mL (≈ 0.224 µM) | 0.25 µg/mL (≈ 0.224 µM) | 0.25 µg/mL (≈ 0.224 µM) | >32 µg/mL | >32 µg/mL | 4 µg/mL (≈ 3.58 µM) | >32 µg/mL | – | –
3 | CCCCCC(=O)N[C@@H](CCN)C(=O)N[C@H](C(=O)N[C@H](CO)C(=O)N[C@H]1CCNC(=O)[C@H]([C@@H](C)O)NC(=O)[C@H](CCN)NC(=O)[C@H](CCN)NC(=O)[C@H]([C@@H](C)O)NC(=O)[C@@H](CC(C)C)NC(=O)[C@H](CCN)NC1=O)[C@@H](C)O [Compound 8] (Hexanoyl-[Dab]T[dS][Dab][Dab][dL]T[Dab][Dab]T; lactam 4-C) | 1 µg/mL (≈ 0.907 µM) | 2 µg/mL (≈ 1.81 µM) | 2 µg/mL (≈ 1.81 µM) | 2 µg/mL (≈ 1.81 µM) | 1 µg/mL (≈ 0.907 µM) | 0.25 µg/mL (≈ 0.227 µM) | 0.5 µg/mL (≈ 0.454 µM) | 0.25 µg/mL (≈ 0.227 µM) | 4 µg/mL (≈ 3.63 µM) | 4 µg/mL (≈ 3.63 µM) | 8 µg/mL (≈ 7.26 µM) | >32 µg/mL | −0.05 log10 CFU/mL | –
4 | CCCCCC(=O)N[C@@H](CCN)C(=O)N[C@H](C(=O)N[C@@H](CCN)C(=O)N[C@H]1CCNC(=O)[C@H]([C@@H](C)O)NC(=O)[C@H](CCN)NC(=O)[C@H](CCN)NC(=O)[C@H]([C@@H](C)O)NC(=O)[C@@H](CC(C)C)NC(=O)[C@H](CCN)NC1=O)[C@@H](C)O [Compound 26] (Hexanoyl-[Dab]T[Dab][Dab][Dab][dL]T[Dab][Dab]T; lactam 4-C) | 2 µg/mL (≈ 1.79 µM) | 16 µg/mL (≈ 14.3 µM) | 8 µg/mL (≈ 7.17 µM) | 16 µg/mL (≈ 14.3 µM) | 16 µg/mL (≈ 14.3 µM) | 0.5 µg/mL (≈ 0.448 µM) | 0.5 µg/mL (≈ 0.448 µM) | 1 µg/mL (≈ 0.897 µM) | 0.5 µg/mL (≈ 0.448 µM) | 0.5 µg/mL (≈ 0.448 µM) | 2 µg/mL (≈ 1.79 µM) | >32 µg/mL | −0.04 log10 CFU/mL | –
5 | CCCCCCCCCC(=O)N[C@@H](CCN)C(=O)N[C@H](C(=O)N[C@@H](CCN)C(=O)N[C@H]1CCNC(=O)[C@H]([C@@H](C)O)NC(=O)[C@H](CCN)NC(=O)[C@H](CCN)NC(=O)[C@H]([C@@H](C)O)NC(=O)[C@@H](CC(C)C)NC(=O)[C@H](CCN)NC1=O)[C@@H](C)O [Compound 27] (Decanoyl-[Dab]T[Dab][Dab][Dab][dL]T[Dab][Dab]T; lactam 4-C) | 0.5 µg/mL (≈ 0.427 µM) | 1 µg/mL (≈ 0.854 µM) | 1 µg/mL (≈ 0.854 µM) | 1 µg/mL (≈ 0.854 µM) | 1 µg/mL (≈ 0.854 µM) | <0.125 µg/mL | <0.125 µg/mL | 0.25 µg/mL (≈ 0.213 µM) | 1 µg/mL (≈ 0.854 µM) | 1 µg/mL (≈ 0.854 µM) | 1 µg/mL (≈ 0.854 µM) | 16 µg/mL (≈ 13.7 µM) | −3.67 log10 CFU/mL | –
6 | CC(C)C[C@H]1NC(=O)[C@H](CCN)NC(=O)[C@@H](NC(=O)[C@H](CCN)NC(=O)[C@@H](NC(=O)[C@H](CCN)NC(=O)c2ccc(-c3ccccc3)cc2)[C@@H](C)O)CCNC(=O)[C@H]([C@@H](C)O)NC(=O)[C@H](CCN)NC(=O)[C@H](CCN)NC(=O)[C@H]([C@@H](C)O)NC1=O [Compound 29] ({Benzoyl(4-Ph)}-[Dab]T[Dab][Dab][Dab][dL]T[Dab][Dab]T; lactam 4-C) | – | – | – | – | – | – | – | – | – | – | – | – | −2.80 log10 CFU/mL | MIC (Klebsiella pneumoniae; K. pneumoniae FADDI-KP032): 1 µg/mL (≈ 0.835 µM); MIC (Acinetobacter baumannii; A. baumannii ATCC 19606): 8 µg/mL (≈ 6.68 µM); Minimum inhibitory concentration, Ab A ATCC 17978 (Acinetobacter baumannii; [1]): 2 µg/mL (≈ 1.67 µM); Minimum inhibitory concentration, Ab ATCC 19606 (Acinetobacter baumannii; [2]): 8 µg/mL (≈ 6.68 µM); Minimum inhibitory concentration, Ab FADDI-AB034 (Acinetobacter baumannii; [3]): 4 µg/mL (≈ 3.34 µM); Minimum inhibitory concentration, Ec FADDI-EC001 (Enterobacter cloacae; [4]): 0.5 µg/mL (≈ 0.418 µM); Minimum inhibitory concentration, Ec FADDI-EC003 (Enterobacter cloacae; [5]): 1 µg/mL (≈ 0.835 µM); Minimum inhibitory concentration, Ec FADDI-EC006 (Enterobacter cloacae; [6]): 0.5 µg/mL (≈ 0.418 µM); MIC (Pseudomonas aeruginosa; P. aeruginosa ATCC 27853): 1 µg/mL (≈ 0.835 µM); Minimum inhibitory concentration, Pa ATCC 27853 (Pseudomonas aeruginosa; [7]): 1 µg/mL (≈ 0.835 µM); Minimum inhibitory concentration, Pa FADDI-PA022 (Pseudomonas aeruginosa; [8]): 4 µg/mL (≈ 3.34 µM); Minimum inhibitory concentration, Pa FADDI-PA025 (Pseudomonas aeruginosa; [9]): 32 µg/mL (≈ 26.7 µM)
7 | CC(C)C[C@H]1NC(=O)[C@H](CCN)NC(=O)[C@@H](NC(=O)[C@H](CCN)NC(=O)[C@@H](NC(=O)[C@H](CCN)NC(=O)Cc2ccccc2)[C@@H](C)O)CCNC(=O)[C@H]([C@@H](C)O)NC(=O)[C@H](CCN)NC(=O)[C@H](CCN)NC(=O)[C@H]([C@@H](C)O)NC1=O [Compound 30] (PhAc-[Dab]T[Dab][Dab][Dab][dL]T[Dab][Dab]T; lactam 4-C) | – | – | – | – | – | – | – | – | – | – | – | – | −0.39 log10 CFU/mL | MIC (Klebsiella pneumoniae; K. pneumoniae FADDI-KP032): 1 µg/mL (≈ 0.881 µM); MIC (Acinetobacter baumannii; A. baumannii ATCC 19606): 32 µg/mL (≈ 28.2 µM); Minimum inhibitory concentration, Ab A ATCC 17978 (Acinetobacter baumannii; [1]): 32 µg/mL (≈ 28.2 µM); Minimum inhibitory concentration, Ab ATCC 19606 (Acinetobacter baumannii; [2]): 32 µg/mL (≈ 28.2 µM); Minimum inhibitory concentration, Ab FADDI-AB034 (Acinetobacter baumannii; [3]): 32 µg/mL (≈ 28.2 µM); Minimum inhibitory concentration, Ec FADDI-EC001 (Enterobacter cloacae; [4]): 2 µg/mL (≈ 1.76 µM); Minimum inhibitory concentration, Ec FADDI-EC003 (Enterobacter cloacae; [5]): 2 µg/mL (≈ 1.76 µM); Minimum inhibitory concentration, Ec FADDI-EC006 (Enterobacter cloacae; [6]): 4 µg/mL (≈ 3.52 µM); MIC (Pseudomonas aeruginosa; P. aeruginosa ATCC 27853): 1 µg/mL (≈ 0.881 µM); Minimum inhibitory concentration, Pa ATCC 27853 (Pseudomonas aeruginosa; [7]): 1 µg/mL (≈ 0.881 µM); Minimum inhibitory concentration, Pa FADDI-PA022 (Pseudomonas aeruginosa; [8]): 1 µg/mL (≈ 0.881 µM); Minimum inhibitory concentration, Pa FADDI-PA025 (Pseudomonas aeruginosa; [9]): >32 µg/mL

Reference: patent USRE48335E1, “Polymyxin derivatives as antimicrobial compounds” (priority 2014, dated 2020)
